Measurements: patent US5344952A, “Fluoroketone enzyme inhibitors” (priority 1993, dated 1994)

Legend:
[1] = target: T1, Rabbit Liver Esterase (E.C. 3.1.1.1) (Oryctolagus cuniculus, UniProt P12337); test: Inhibition constant, rabbit liver esterase (o-nitrophenylbutyrate hydrolysis); assay type: biochemical; conditions: RLE; 50 mM Tris pH=8.0; 20 min incubation at ambient temperature; substrate o-nitro-phenylbutrate
T1 construct: from tissue; host or cells: liver
T1 sequence (P12337 19-565): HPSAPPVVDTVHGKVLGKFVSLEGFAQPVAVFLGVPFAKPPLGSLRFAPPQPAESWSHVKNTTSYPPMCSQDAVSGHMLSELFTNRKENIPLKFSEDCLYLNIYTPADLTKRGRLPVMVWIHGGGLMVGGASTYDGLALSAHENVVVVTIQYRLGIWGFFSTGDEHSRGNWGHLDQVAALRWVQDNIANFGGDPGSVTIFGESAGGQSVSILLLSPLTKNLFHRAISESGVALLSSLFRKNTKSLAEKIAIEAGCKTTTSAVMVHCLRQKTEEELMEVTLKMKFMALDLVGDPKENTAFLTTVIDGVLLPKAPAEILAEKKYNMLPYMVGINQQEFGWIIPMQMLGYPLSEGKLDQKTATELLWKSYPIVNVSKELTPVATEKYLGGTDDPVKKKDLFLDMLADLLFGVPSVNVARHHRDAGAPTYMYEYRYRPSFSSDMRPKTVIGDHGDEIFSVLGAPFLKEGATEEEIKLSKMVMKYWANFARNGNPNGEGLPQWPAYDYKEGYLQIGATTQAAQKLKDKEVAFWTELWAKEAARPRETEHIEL
Method: Inhibition constants were measured in 50 mM Tris pH=8.0. Enzyme and inhibitor were incubated at ambient temperature for 20 minutes. Substrate for the enzyme was then added and the rate of hydrolysis was followed spectrophotometrically. The substrate for PLE and RLE was o-nitro-phenylbutrate and for AChE was acetyl thiocholine and Ellman's reagent.

[2] = tested on: RLE; test: Sandwich assay for Adenovirus, free inhibitor added to control wells (RLE, o-nitrophenyl butyrate); assay type: biochemical, rabbit; conditions: control wells having no antigen; 5×10^-9 M RLE, 50 mM TRIS pH 8.5, 1 mM o-nitrophenyl butyrate; color without inhibitor in ca 15 minutes
Method: A polyvinyl chloride microtiter plate was coated with anit-adenovirus antibody by incubating the plate for 1 hour at 37° C. in a 1:900 dilution of 4.5 mg/mL stock solution of the antibody in a 10 mM carbonate 20 mM ethylenediaminetetraacetic acid (EDTA) buffer. The plate was washed 3 times with a wash buffer solution consisting of 0.5% casein in 10 mM TRIS and 154 mM NaCl at pH 7.6. Adenovirus infected HeLa cells diluted to ca 1×10^5 plaque forming units (PFU)/ml in pH 7.4 phosphate buffered-saline containing 0.05% polyoxyethylenesorbitan monolaurate, 0.1 mg/ML gentamicin, 0.5% phenol red, 0.1% bovine serum albumin, 10 mM EDTA and 100 mM ethylene bis(oxyethylenenitrilo) tetraacetic acid were serially diluted in 2-fold steps across the plate. The plate was incubated-as above to bind the cells to the antibody, washed with wash buffer, incubated with a 0.005 mg/mL tracer solution of anti-adenovirus conjugated to alkaline phosphatase in wash buffer containing 0.5% gelatin and 10% inactivated fetal calf serum. Excess tracer solution was decanted and the plate was washed 3 times with TRIS buffer (without casein). A mixture of a 1×10^-4 M solution of the blocked inhibitor from Example I and 5×10^-9 M RLE in 50 mM TRIS buffer, pH 8.5, was added and the plate was incubated at room temperature for 10 minutes. o-Nitrophenyl butyrate (1 mM) was then added to each well of the plate. […]

O=C(/C=C/c1cccc(O)c1)C(F)(F)F [1,1,1-trifluoro-4-(3-hydroxyphenyl)-3-trans-buten-2-one] showed a Ki [1] of 160 nM.

In the case of O=C(CCc1ccc(O)cc1)C(F)(F)F [1,1,1-Trifluoro-4-(4-hydroxyphenyl)-2-butanone], the “color formation in control wells on addition of free inhibitor” value [2] is reported as “inhibited color formation for longer periods”.
